Measured values from patent US10745356B2, “Compositions and methods for treating tuberculosis” (priority 2015, dated 2020).
In brackets after ≈: the same amount, converted by molar mass. Like-named read-outs stand apart in the source and are kept apart here.

Test system: M. tuberculosis strains
Assay: Minimum Inhibitory Concentration (MIC) against M. tuberculosis strains, resazurin microtiter plate assay
Type: cell-based, Mycobacterium tuberculosis
Details: Mycobacterium tuberculosis
[1] = Table 4A, C6 SAR with amide, Middlebrook 7H9, 37° C. six days, resazurin fluorescence after 48 hours, read-out: MIC90
[2] = Table 5, Middlebrook 7H9, 37° C. six days, resazurin fluorescence after 48 hours, read-out: MIC90
[3] = Table 6, Middlebrook 7H9, 37° C. six days, resazurin fluorescence after 48 hours, read-out: MIC90

Structure (SMILES) | MIC90 [1] [µM] | MIC90 [2] [µM] | further results
Cc1cc2nccc(-c3ccccc3)c2c(C)c1-c1ccn(C)n1 [Compound 75] |  |  | MIC90: > 125 µM
Cc1cc2nccc(-c3ccccc3)c2c(C)c1-c1ccnn1C [Compound 76] |  |  | MIC90: 47 µM (≈ 14.7 µg/mL)
Cc1cc2nccc(-c3ccccc3)c2c(C)c1-c1cnn(C)c1 [Compound 77] |  |  | MIC90: 47 µM (≈ 14.7 µg/mL)
CNC(=O)c1cc(-c2ccccc2F)c2c(C)c(-c3ccc(CN4CCOCC4)cc3)c(C)cc2n1 [Compound 78] | 0.6 (≈ 0.29 µg/mL) |  | 
CNC(=O)c1cc(-c2ccccc2F)c2c(C)c(-c3ccnc(C(F)(F)F)c3)c(C)cc2n1 [Compound 79] | 5 (≈ 2.27 µg/mL) |  | 
CNC(=O)c1cc(-c2ccccc2F)c2c(C)c(-c3ccoc3)c(C)cc2n1 [Compound 80] |  |  | MIC90: 0.6 µM (≈ 0.225 µg/mL)
CNC(=O)c1cc(-c2ccccc2F)c2c(C)c(-c3cccs3)c(C)cc2n1 [Compound 81] | 3 (≈ 1.17 µg/mL) |  | 
CNC(=O)c1cc(-c2ccccc2F)c2c(C)c(-c3cnc(C(=O)O)nc3)c(C)cc2n1 [Compound 82] | 80 (≈ 34.4 µg/mL) |  | 
CNC(=O)c1cc(-c2ccccc2F)c2c(C)c(-c3ccnc(N)c3)c(C)cc2n1 [Compound 83] | 7.5 (≈ 3 µg/mL) |  | 
CNC(=O)c1cc(-c2ccccc2F)c2c(C)c(-c3ccnc(C)c3)c(C)cc2n1 [Compound 84] | 6 (≈ 2.4 µg/mL) |  | 
CNC(=O)c1cc(-c2ccccc2F)c2c(C)c(-c3cccnc3)c(C)cc2n1 [Compound 85] | 3 (≈ 1.16 µg/mL) |  | 
CNC(=O)c1cc(-c2ccccc2F)c2c(C)c(C3=CCNCC3)c(C)cc2n1 [Compound 86] |  |  | MIC90: 20 µM (≈ 7.79 µg/mL)
CNC(=O)c1cc(-c2ccccc2F)c2c(C)c(C3=CCC(C(=O)O)CC3)c(C)cc2n1 (centres unmarked) [Compound 87] | 2.5 (≈ 1.08 µg/mL) |  | 
CNC(=O)c1cc(-c2ccccc2F)c2c(C)c(C3=CCN(S(=O)(=O)N4CCOCC4)CC3)c(C)cc2n1 [Compound 88] | 10 (≈ 5.39 µg/mL) |  | 
CNC(=O)c1cc(-c2ccccc2F)c2c(C)c(C3=CCC(C(=O)N4CCOCC4)CC3)c(C)cc2n1 (centres unmarked) [Compound 89] | 1.25 (≈ 0.627 µg/mL) |  | 
CNC(=O)c1cc(-c2ccccc2F)c2c(C)c(C3=CCN(C(=O)N4CCOCC4)CC3)c(C)cc2n1 [Compound 90] | 5 (≈ 2.51 µg/mL) |  | 

Structure (SMILES) | MIC90 [1] [µM] | MIC90 [2] [µM] | further results
CNC(=O)c1cc(-c2ccccc2F)c2c(C)c(C3=CCC(CO)CC3)c(C)cc2n1 (centres unmarked) [Compound 91] |  |  | MIC90: 0.6 µM (≈ 0.251 µg/mL)
CNC(=O)c1cc(-c2ccccc2F)c2c(C)c(C3=CCC(CN4CCOCC4)CC3)c(C)cc2n1 (centres unmarked) [Compound 92] | 1.25 (≈ 0.61 µg/mL) |  | 
Cc1cc2nccc(-c3cccnc3)c2c(C)c1-c1ccc(CN2CCOCC2)cc1 [Compound 93] |  | 1.6 (≈ 0.655 µg/mL) | 
Cc1cc2nc(C(=O)NS(C)(=O)=O)cc(-c3ccccc3Cl)c2c(C)c1-c1ccncc1 [Compound 94] |  | 5 (≈ 2.33 µg/mL) | 
CNC(=O)c1cc(-c2ccccc2)c2c(C)c(-c3ccncc3)c(C)cc2n1 [Compound 95] |  | 0.3 (≈ 0.11 µg/mL) | 
Cc1cc2nc(C(=O)NCCO)cc(-c3ccccc3)c2c(C)c1-c1ccncc1 [Compound 96] |  | 0.3 (≈ 0.119 µg/mL) | 
Cc1cc2nc(C(=O)N[C@H]3CCC[C@@H]3O)cc(-c3ccccc3F)c2c(C)c1-c1ccncc1 [Compound 97] |  | < 0.16 | 
Cc1cc2nc(C(=O)N[C@@H]3CCC[C@H]3O)cc(-c3ccccc3F)c2c(C)c1-c1ccncc1 [Compound 98] |  | 0.6 (≈ 0.273 µg/mL) | 
CNC(=O)c1cc(C2=CCOCC2)c2c(C)c(-c3ccncc3)c(C)cc2n1 [Compound 99] |  | 12.5 (≈ 4.67 µg/mL) | 
CNC(=O)c1cc(N2CCN(C)CC2)c2c(C)c(-c3ccncc3)c(C)cc2n1 [Compound 100] |  | > 50 | 
CNC(=O)c1cc(N2CCNCC2)c2c(C)c(-c3ccncc3)c(C)cc2n1 [Compound 101] |  | > 50 | 
CNC(=O)c1cc(C2=CCCCC2)c2c(C)c(-c3ccncc3)c(C)cc2n1 [Compound 102] |  | 3 (≈ 1.11 µg/mL) | 
Cc1cc2nc(C(=O)N3CCC(N(C)C)C3)cc(-c3ccccc3Cl)c2c(C)c1-c1ccc(CN2CCOCC2)cc1 (centres unmarked) [Compound 103] |  |  | MIC90 [3]: 0.8 µM (≈ 0.467 µg/mL)
CNC(=O)c1cc(-c2ccnn2C)c2c(C)c(-c3ccncc3)c(C)cc2n1 [Compound 104] |  |  | MIC90 [3]: 6 µM (≈ 2.23 µg/mL)
Cc1cc2nc(C(=O)N[C@@H]3CN(C)C[C@@H]3F)cc(-c3ccnn3C)c2c(C)c1-c1ccncc1 [Compound 106] |  |  | MIC90 [3]: 1.6 µM (≈ 0.734 µg/mL)
Cc1cc2nc(C(=O)NCCO)cc(-c3ccnn3C)c2c(C)c1-c1ccncc1 [Compound 107] |  |  | MIC90 [3]: 1.6 µM (≈ 0.642 µg/mL)
